In US20160264616A1, “THERAPEUTIC COMPOUNDS AND METHODS” (priority 2015, published 2016):
“Also recorded” adds a separate entry of the source.

How the values were obtained:
RGS17 = molecular target: T1, RGS17 (Homo sapiens, UniProt Q9UGC6); assay: Differential scanning fluorimetry (DSF) with RGS17; type: binding; details: 50 μM compound; for effect on RGS17 thermal stability (DSF): versus DMSO
T1 construct: This is the same RGS17 construct used in the high throughput screening campaign that is fully active despite the N-terminal truncation; made in house
T1 sequence (Q9UGC6 84-200 limits assumed): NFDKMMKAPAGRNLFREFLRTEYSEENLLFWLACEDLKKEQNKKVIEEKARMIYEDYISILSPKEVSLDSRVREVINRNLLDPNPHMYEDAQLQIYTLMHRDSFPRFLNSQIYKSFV
Method: Further evaluation of the compounds designated UI-5, UI-1590, UI-1907 and UI-1956 was conducted using Differential Scanning Fluorimetry (DSF). This method allows for the rapid measurement of protein stability based on the melting temperature (Tm) of the target protein that is bound by ligand. A shift of Tm indicates a change in protein stability to melting due to stabilization added by the small molecule binding to the target protein. The four compounds were incubated at 50 μM with RGS17 or Gαo in the presence of Sypro Orange. In aqueous solution the fluorescence emission from the dye is very weak. However, when the dye binds to hydrophobic regions of a protein a significant increase in florescence intensity is observed intensity (20). The hydrophobic parts of a native, fully folded, protein in solution are generally buried within the protein and therefore not accessible to the dye resulting in little fluorescence emission. When the protein unfolds the dye molecules can bind to the exposed hydrophobic regions of the proteins, resulting in increased fluorescence. […] UI-5, UI-1590 and UI-1956 shifted RGS17's Tm by 2.1° C., 1.4° C. and 1.0° C., respectively (FIG. 4B). These three compounds were further characterized for activity against RGS17.
Differential scanning fluorimetry experiments were carried out using white 384-well μltraAMP PCR plates (Sorenson BioSciences; Salt Lake City, Utah). All experiments were carried out as previously described by Phillips and Hernandez de la Pena.(55) In brief, a 1:2000 dilution of Sypro Orange was made by adding 1 μL of Sypro Orange to 2 mL of PBS at pH 7.5. First, 1.2 mg/mL protein was incubated with 50 μM of each compound at room temperature for 15 min in a 10 μL volume. Upon completion of the incubation, 110 μL of the Sypro Orange-PBS solution was added to each compound/protein mixture. This yielded a final volume of 120 μL containing 0.1 mg/mL protein. Finally, 20 μL of the Sypro Orange/compound/protein mix for each compound and RGS17 or Gαo proteins was added to four wells of the 384-well plate. The experiment was run on the Roche LightCycler 480 (Roche, Switzerland) using a two-step method. Starting with a 25° C. baseline step and a second step with a target temperature of 95° C. with continuous acquisition and set acquisition rate of 3 per ° C. All data was collected using the Roche LightCycler data acquisition ability and analyzed with Graphpad Prism 6.0, using first and second derivatives of the fluorescent melting curves.

[1] = molecular target: T2, RGS17:Gαo protein:protein interaction (Homo sapiens, UniProt Q9UGC6); assay: Compound reversibility, washed/unwashed AlphaScreen; type: binding; details: RGS17 incubated with 100 μM, washed three times
T2 construct: This is the same RGS17 construct used in the high throughput screening campaign that is fully active despite the N-terminal truncation; made in house; host or cells: BL21 (DE3) E. coli for Gαo
T2 sequence (Q9UGC6 84-200 limits assumed): T1 sequence (Q9UGC6 84-200 limits assumed)
Method: To determine the reversibility of compound inhibition of the RGS17:Gαo protein:protein interaction, RGS17 was treated with 100 μM compound. This concentration was determined through the earlier dose-response experiments to inhibit the AlphaScreen assay >25% for each of the compounds (UI-5, UI-1590, UI-1907 and UI-1956). Upon completion of incubation with compounds, each sample was washed three times with ASB buffer. This method will promote dissociation of any compounds that are non-covalent where as any covalent modifiers would result in persistent protein:protein interaction inhibition.
First, stock solutions of all four compounds were made at a 3× concentration or 300 μM for a final concentration of 100 μM. The final DMSO concentration in the assay was 1%. Next, RGS17 and Gαo were diluted into 300 μL of assay buffer (AlphaScreen Buffer: ASB) (50 mM HEPES, 100 mM NaCl, 0.1% Lubrol, 1% bovine serum albumin [BSA], pH 8.0) at a 3× concentration of 30 nM. Next, 7.2 μL of AlphaScreen beads were added to each separate protein. The protein and bead solution was incubated on ice for 30 mins in the dark. Upon completion of protein:bead conjugation, 600 μL of ASB was added to RGS17. To the Gαo sample, 279 μL of AMF (final concentration of 10 μM NaF, […], 10 nM AlCl3, and 5 μM GDP) and 321 μL of ASB were added. The RGS17 sample was split into 90 μL tubes and 90 μL of each compound or DMSO vehicle was added to the RGS17:bead mixture and incubated for 15 mins. Upon completion of compound incubation, the RGS17:bead mixture was washed 3 times with 1.8 mL of ASB. The RGS17 protein:bead samples were pelleted after each wash through centrifugation at 15, 000×g for 10 mins. After the final wash step, the RGS17 protein:bead pellet was resuspended in 180 μL of ASB. Next, to a 384 white plate, 30 μL of the RGS17 protein:bead: compound samples either washed or unwashed were added to each well in triplicate. Finally, 15 μL of the Gαo protein:bead sample was added to each well. The plate was incubated at room temperature, in the dark, for 1.25 hours and read on a Synergy2 plate reader (Biotek, Wisnooski, Vt.) with a sensitivity setting of 200, excitation at 680 nm, and emission read at 570 nm. All data was analyzed with Graphpad Prism 6.0. All data was compared to DMSO controls and corrected for possible bead loss due to washing steps.

SMILES	shift of RGS17 Tm (RGS17)	effect on RGS17 thermal stability (DSF) (RGS17)	reversibility of inhibition after washing [1]
C[n+]1cc2c3c(ccc2c2ccc4cc5c(cc4c21)OCO5)OCO3 [UI-5]	2.1 °C	stabilize RGS17 against thermal denaturing	reversible
CC1=C(O)C(=O)C=C2C1=CC=C1[C@@]2(C)CC[C@@]2(C)[C@@H]3C[C@](C)(C(=O)O)CC[C@]3(C)CC[C@]12C [UI-1590]	1.4 °C	stabilize RGS17 against thermal denaturing	reversible
CC(C)=CCC[C@]1(C)C=Cc2c(O)c3c(c(CC=C(C)C)c2O1)O[C@]12C(=C[C@@H]4C[C@H]1C(C)(C)O[C@@]2(C/C=C(/C)C(=O)O)C4=O)C3=O [UI-1907]	–	alter the thermal stability of both RGS17 and Gαo; also recorded: bind both the RGS and G protein subunit in a non-specific manner	reversible
O=c1c(-c2cc(O)c(O)c(O)c2)coc2cc(O)c(O)c(O)c12 [UI-1956, 5,6,7-trihydroxy-3-(3,4,5-trihydroxyphenyl)-4H-chromen-4-one]	1.0 °C	stabilize RGS17 against thermal denaturing	reversible
